From patent publication US20220073521A1, “PYRIMIDINE AND FIVE-MEMBERED NITROGEN HETEROCYCLE DERIVATIVE, PREPARATION METHOD THEREFOR, AND MEDICAL USES THEREOF” (Tuojie Biotech (Shanghai) Co., Ltd., priority 2018, published 2022)
Numbering of substitutions follows the chain as printed. Read-outs that look alike come from different tables or passages of the source.

Experiments:
[1] = target: T1, hERG potassium channel (Homo sapiens, UniProt Q12809); test: hERG current inhibition experiment (manual patch clamp, CHO hERG cells); format: cell-based; conditions: whole-cell patch clamp, tail current
T1 construct: host or cells: CHO hERG cells
Experimental: In this experiment, whole-cell current recording was performed using a manual patch clamp system (HEKA EPC-10 signal amplification and digital conversion system, purchased from HEKA Electronic, Germany). The round glass slide of which surface CHO hERG cells (provided by Sophion Bioscience Inc., Denmark, the cell generation number was P21) were grown on was placed in an electrophysiological recording slot under an inverted microscope. The recording slot was continuously perfused with extracellular fluid (approximately 1 mL per minute). Conventional whole-cell patch clamp current recording technique was used in the experiment. The experiments were performed at normal room temperature (˜25° C.). The cells were clamped at a voltage of −80 mV. Cell patch clamp voltage was depolarized to +20 mV to activate hERG potassium channel, and to −50 mV after 5 seconds to eliminate inactivation and generate tail currents. The tail current peak was used as a value of hERG current. When the hERG potassium current recorded in the above steps became steady under continuous perfusion of the extracellular fluid in the recording slot, the drug to be tested could be added to the perfusion, until the inhibition effect of the drug on hERG current reached a steady state. Generally, the overlapping of most recent three consecutive current recording lines was used as a criterion to determine whether the state was stable. After reaching the steady state, the recording slot was perfused with extracellular fluid until the hERG current returned to the value before the drug adding. The test data was analyzed by HEKA Patchmaster (V2x73.2), Microsoft Excel and the data analysis software provided by Graphpad Prism 5.0.

[2] = target: T2, SHP2 E76K (Homo sapiens, UniProt Q06124, E76K); test: In vitro activity on SHP2 mutant E76K phosphatase; format: biochemical
T2 construct: recombinantly expressed full-length SHP2 (aa 1-593) with E69K and E76K; purchased Novoprotein Scientific Inc
T2 sequence (Q06124 1-593 E76K): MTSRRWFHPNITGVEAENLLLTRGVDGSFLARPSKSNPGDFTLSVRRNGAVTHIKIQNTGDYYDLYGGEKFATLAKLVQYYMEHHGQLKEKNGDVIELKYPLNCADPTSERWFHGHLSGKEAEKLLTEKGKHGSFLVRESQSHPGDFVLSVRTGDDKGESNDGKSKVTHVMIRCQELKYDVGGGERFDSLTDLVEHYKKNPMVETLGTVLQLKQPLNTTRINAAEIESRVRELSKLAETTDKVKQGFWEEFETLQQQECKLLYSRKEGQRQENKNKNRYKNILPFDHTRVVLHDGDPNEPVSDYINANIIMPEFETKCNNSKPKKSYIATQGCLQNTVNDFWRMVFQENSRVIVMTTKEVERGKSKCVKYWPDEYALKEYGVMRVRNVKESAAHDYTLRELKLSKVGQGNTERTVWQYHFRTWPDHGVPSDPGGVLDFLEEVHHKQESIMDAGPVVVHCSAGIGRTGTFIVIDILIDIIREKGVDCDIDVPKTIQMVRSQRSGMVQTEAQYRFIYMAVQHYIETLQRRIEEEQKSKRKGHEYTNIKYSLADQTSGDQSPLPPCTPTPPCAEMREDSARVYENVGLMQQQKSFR
Experimental: (§1) The reaction solution was shaked (350 rpm) at room temperature for 30 minutes. The reaction substrate DiFMUP with a final concentration of 30 μM was added, and the reaction solution was reacted at room temperature for 30 minutes. The phosphatase reaction was stopped by adding 5 μL of stop solution (60 mM HEPES, pH 7.5, 0.2% SDS).

[3] = target: T3, SHP2 E69K (Homo sapiens, UniProt Q06124, E69K); test: In vitro activity on SHP2 mutant E69K phosphatase; format: biochemical
T3 construct: recombinantly expressed full-length SHP2 (aa 1-593) with E69K and E76K; purchased Novoprotein Scientific Inc
T3 sequence (Q06124 1-593 E69K): T2 sequence (Q06124 1-593 E76K) with E69K, K76E
Experimental: as §1

T1 sequence (Q12809 whole entry): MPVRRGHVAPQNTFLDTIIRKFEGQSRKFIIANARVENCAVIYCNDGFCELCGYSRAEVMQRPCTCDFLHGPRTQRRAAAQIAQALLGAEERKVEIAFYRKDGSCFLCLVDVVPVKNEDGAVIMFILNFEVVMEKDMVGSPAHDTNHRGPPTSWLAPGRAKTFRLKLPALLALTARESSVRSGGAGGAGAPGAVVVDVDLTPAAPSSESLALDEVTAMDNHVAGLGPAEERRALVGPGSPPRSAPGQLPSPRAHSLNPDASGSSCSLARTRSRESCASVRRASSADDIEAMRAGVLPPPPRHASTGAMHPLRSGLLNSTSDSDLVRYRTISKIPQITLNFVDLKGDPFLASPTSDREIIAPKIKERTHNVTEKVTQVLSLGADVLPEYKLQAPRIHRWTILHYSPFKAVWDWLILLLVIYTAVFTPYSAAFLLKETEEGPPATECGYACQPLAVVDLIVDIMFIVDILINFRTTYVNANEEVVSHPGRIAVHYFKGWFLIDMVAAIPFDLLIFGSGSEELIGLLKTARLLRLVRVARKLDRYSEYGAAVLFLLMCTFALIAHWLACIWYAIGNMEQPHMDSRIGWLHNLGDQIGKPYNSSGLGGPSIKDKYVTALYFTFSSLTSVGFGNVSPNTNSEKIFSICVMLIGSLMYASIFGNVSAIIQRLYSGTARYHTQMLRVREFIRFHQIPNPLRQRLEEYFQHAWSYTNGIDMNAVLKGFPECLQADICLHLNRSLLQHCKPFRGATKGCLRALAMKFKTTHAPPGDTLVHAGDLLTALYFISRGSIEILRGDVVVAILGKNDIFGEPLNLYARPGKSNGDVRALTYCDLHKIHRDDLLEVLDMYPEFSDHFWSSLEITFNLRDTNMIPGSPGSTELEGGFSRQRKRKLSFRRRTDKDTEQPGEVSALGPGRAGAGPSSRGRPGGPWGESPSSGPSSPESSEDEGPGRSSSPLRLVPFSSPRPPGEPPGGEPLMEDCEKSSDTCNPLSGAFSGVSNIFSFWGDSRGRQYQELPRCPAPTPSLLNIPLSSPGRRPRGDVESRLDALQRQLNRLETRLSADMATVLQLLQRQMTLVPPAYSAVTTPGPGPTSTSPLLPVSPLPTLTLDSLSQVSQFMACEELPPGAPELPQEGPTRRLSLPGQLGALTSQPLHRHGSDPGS

IC50 ([2]; activated polypeptide IRS1 added, read-out: SHP2 E76K the activated polypeptide was added IC50) [nM] | IC50 ([2]; activated polypeptide not added, read-out: SHP2 E76K the activated polypeptide was not added IC50) [nM] | IC50 ([3]; activated polypeptide IRS1 added, read-out: SHP2 E69K the activated polypeptide was added IC50) [nM] | IC50 ([3]; activated polypeptide not added, read-out: SHP2 E69K the activated polypeptide was not added IC50) [nM] | SMILES | IC50 [1] [µM] | IC50 ([2]; SHP2 E76K the activated polypeptide was added IC50, activated polypeptide IRS1 added) [nM] | IC50 ([2]; SHP2 E76K the activated polypeptide was not added IC50, activated polypeptide not added) [nM] | IC50 ([3]; SHP2 E69K the activated polypeptide was added IC50, activated polypeptide IRS1 added) [nM] | IC50 ([3]; SHP2 E69K the activated polypeptide was not added IC50, activated polypeptide not added) [nM]
 |  |  |  | CNc1nccc(Sc2c(C)nc(N3CCC4(CC3)Cc3ncccc3[C@H]4N)n3ccnc23)c1Cl [Example 41, (S)-1′-(8-((3-Chloro-2-(methylamino)pyridin-4-yl)thio)-7-methylimidazo[1,2-c]pyrimidin-5-yl)-5,7-dihydrospiro[cyclopenta[b]pyridine-6,4′-piperidin]-5-amine] | 10.2 | 134 | 5.4 | 8.5 | 0.91
78 | 4.2 | 7.1 | 0.78 | CNc1nccc(Sc2cnc(N3CCC4(CC3)Cc3ncccc3[C@H]4N)n3ccnc23)c1Cl [Example 43, (S)-1′-(8-((3-Chloro-2-(methylamino)pyridin-4-yl)thio)imidazo[1,2-c]pyrimidin-5-yl)-5,7-dihydrospiro[cyclopenta[b]pyridine-6,4′-piperidin]-5-amine] | 10.3 |  |  |  | 
